Results: PubChem BioAssay AID2060505 (Molecular Pharmacology Branch, DTP, NCI, 2025)
pIC50: −log10 of the molar value.

Tested on: 633275-114-R-J1-PDC complex spheroids, viability
Assay: Anticancer human tumor 633275-114-R-J1-PDC patient-derived endometrial adenocarcinoma cell line growth inhibition [GQUAD]
Details: for pIC50: curve of first compound; for viability, T/C: stronger effect = lower value
Summary of the method: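 Tumor cells were grown as complex spheroids with HUVEC endothelial cells and mesenchymal stem cells as stroma. G-quadruplex stabilizers were combined with targeted agents over half-log dilutions from near the clinical Cmax, or from 10 microM.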

[1] = second compound 0.0316 µM, first compound 0.0316 µM
[2] = second compound 0.0316 µM, first compound 0.1 µM
[3] = second compound 0.0316 µM, first compound 0.316 µM
[4] = second compound 0.0316 µM, first compound 1 µM
[5] = second compound 0.0316 µM, first compound 3.16 µM
[6] = second compound 0.0316 µM, first compound 10 µM
[7] = second compound 0.1 µM, first compound 0.0316 µM
[8] = second compound 0.1 µM, first compound 0.1 µM
[9] = second compound 0.1 µM, first compound 0.316 µM
[10] = second compound 0.1 µM, first compound 1 µM
[11] = second compound 0.1 µM, first compound 3.16 µM
[12] = second compound 0.1 µM, first compound 10 µM
[13] = second compound 0.316 µM, first compound 0.0316 µM
[14] = second compound 0.316 µM, first compound 0.1 µM
[15] = second compound 0.316 µM, first compound 0.316 µM
[16] = second compound 0.316 µM, first compound 1 µM
[17] = second compound 0.316 µM, first compound 3.16 µM
[18] = second compound 0.316 µM, first compound 10 µM
[19] = second compound 1 µM, first compound 0.0316 µM
[20] = second compound 1 µM, first compound 0.1 µM
[21] = second compound 1 µM, first compound 0.316 µM
[22] = second compound 1 µM, first compound 1 µM
[23] = second compound 1 µM, first compound 3.16 µM
[24] = second compound 1 µM, first compound 10 µM
[25] = second compound 3.16 µM, first compound 0.0316 µM
[26] = second compound 3.16 µM, first compound 0.1 µM
[27] = second compound 3.16 µM, first compound 0.316 µM
[28] = second compound 3.16 µM, first compound 1 µM
[29] = second compound 3.16 µM, first compound 3.16 µM
[30] = second compound 3.16 µM, first compound 10 µM
[31] = second compound 10 µM, first compound 0.0316 µM
[32] = second compound 10 µM, first compound 0.1 µM
[33] = second compound 10 µM, first compound 0.316 µM
[34] = second compound 10 µM, first compound 1 µM
[35] = second compound 10 µM, first compound 3.16 µM
[36] = second compound 10 µM, first compound 10 µM
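Also: spheroids exposed to the agents for seven days.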
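For viability, T/C in this document: percent of DMSO vehicle control viability which is 100%.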

## O=c1[nH]cc(F)c(=O)[nH]1 + CN(C)c1ccc(Nc2c3ccc(NC(=O)CCN4CCCC4)cc3nc3cc(NC(=O)CCN4CCCC4)ccc23)cc1
Second compound 0.0316 µM
  pIC50: < 5.00
Second compound 0.1 µM
  pIC50: < 5.00
Second compound 0.316 µM
  pIC50: < 5.00
Second compound 1 µM
  pIC50: < 5.00
Second compound 3.16 µM
  pIC50: < 5.00
Second compound 10 µM
  pIC50: > 7.50
[1]
  viability, T/C: 112%
[2]
  viability, T/C: 96%
[3]
  viability, T/C: 96.9%
[4]
  viability, T/C: 88.1%
[5]
  viability, T/C: 88.5%
[6]
  viability, T/C: 66%
[7]
  viability, T/C: 97.6%
[8]
  viability, T/C: 98.8%
[9]
  viability, T/C: 91.4%
[10]
  viability, T/C: 96.6%
[11]
  viability, T/C: 88.4%
[12]
  viability, T/C: 76.5%
[13]
  viability, T/C: 86.9%
[14]
  viability, T/C: 90.1%
[15]
  viability, T/C: 97.3%
[16]
  viability, T/C: 100%
[17]
  viability, T/C: 86.2%
[18]
  viability, T/C: 66.2%
[19]
  viability, T/C: 79.8%
[20]
  viability, T/C: 91.8%
[21]
  viability, T/C: 98.9%
[22]
  viability, T/C: 99%
[23]
  viability, T/C: 84.9%
[24]
  viability, T/C: 64.3%
[25]
  viability, T/C: 83.2%
[26]
  viability, T/C: 85.9%
[27]
  viability, T/C: 85.2%
[28]
  viability, T/C: 74%
[29]
  viability, T/C: 77.9%
[30]
  viability, T/C: 56.8%
[31]
  viability, T/C: 36%
[32]
  viability, T/C: 38.3%
[33]
  viability, T/C: 30.2%
[34]
  viability, T/C: 33.1%
[35]
  viability, T/C: 32.2%
[36]
  viability, T/C: 26.4%

## CC(=O)O[C@H]1C(=O)[C@@]2(C)[C@H]([C@H](OC(=O)c3ccccc3)[C@]3(O)C[C@H](OC(=O)[C@H](O)[C@@H](NC(=O)c4ccccc4)c4ccccc4)C(C)=C1C3(C)C)[C@]1(OC(C)=O)CO[C@@H]1C[C@@H]2O + Cc1[nH]c2ccc(F)cc2c1-c1nc2c3cccnc3c3ncccc3c2[nH]1
Second compound 0.0316 µM
  pIC50: 7.48
Second compound 0.1 µM
  pIC50: > 7.50
Second compound 0.316 µM
  pIC50: > 7.50
Second compound 1 µM
  pIC50: > 7.50
Second compound 3.16 µM
  pIC50: > 7.50
Second compound 10 µM
  pIC50: > 7.50
[1]
  viability, T/C: 50.9%
[2]
  viability, T/C: 25.6%
[3]
  viability, T/C: 20.8%
[4]
  viability, T/C: 19.7%
[5]
  viability, T/C: 20.6%
[6]
  viability, T/C: 18.9%
[7]
  viability, T/C: 45.3%
[8]
  viability, T/C: 25.8%
[9]
  viability, T/C: 20.2%
[10]
  viability, T/C: 18.4%
[11]
  viability, T/C: 19.1%
[12]
  viability, T/C: 18.9%
[13]
  viability, T/C: 47.8%
[14]
  viability, T/C: 22.1%
[15]
  viability, T/C: 19.9%
[16]
  viability, T/C: 19.5%
[17]
  viability, T/C: 19.4%
[18]
  viability, T/C: 19.1%
[19]
  viability, T/C: 41%
[20]
  viability, T/C: 21.3%
[21]
  viability, T/C: 19.8%
[22]
  viability, T/C: 17.7%
[23]
  viability, T/C: 18.2%
[24]
  viability, T/C: 17.2%
[25]
  viability, T/C: 38.2%
[26]
  viability, T/C: 17.7%
[27]
  viability, T/C: 16.3%
[28]
  viability, T/C: 16.5%
[29]
  viability, T/C: 19.4%
[30]
  viability, T/C: 17.7%
[31]
  viability, T/C: 36.8%
[32]
  viability, T/C: 18.8%
[33]
  viability, T/C: 17.5%
[34]
  viability, T/C: 18.8%
[35]
  viability, T/C: 18.4%
[36]
  viability, T/C: 17.2%
